Legend:
Format in all cases: cell-based
Angioendothelial cells = experiment: Nitric oxide production in cultured angioendothelial cells (Griess method); conditions: for Formed amount of nitric oxide: 24 hours after addition, L-Arg, L-PCA, GA concentrations (mM) in the medium differ per Example as in Table 1, medium without L-arginine
Procedure: Angioendothelial cells were cultured using a DMEM medium (Dulbecco-modified MEM) containing 10% fetal bovine serum (FBS). However, phenol red and L-arginine were not added to the medium. The cells were cultured in the medium for 24 hours. After 24 hours of the culture, L-2-pyrrolidone-5-carboxylic acid and L-arginine were added to the medium, the amounts to be added being different for each Example and Comparative Example, as shown in Table 1 below. The culture was further continued for 24 hours.
Thereafter, the produced amount of the nitric oxide was determined by measuring the nitrogen dioxide in the culture supernatant. Nitrogen dioxide was measured by Griess method. The number of the cells in the culture liquid were measured and the formed amount of the nitric oxide per 10^3 cells was expressed in terms of nmol. By the way, as negative controls, the example wherein neither arginine nor pyrrolidonecarboxylic acid was contained (Comparative Example 1) and the example wherein arginine was contained singly (Comparative Example 2) were used. Moreover, as a positive control, the example wherein arginine and glycolic acid were contained (Comparative Example 3) was used.

cNOS = experiment: RT-PCR of cNOS messenger RNA in angioendothelial cells; conditions: 24 hours; for Expressed amount of cNOS (Relative ratio): messenger RNA by RT-PCR
Procedure: (§1) Angioendothelial cells were cultured using a DMEM medium (Dulbecco-modified MEM) containing 10% fetal bovine serum (FBS). The cells were cultured in the medium for 24 hours. After 24 hours of the culture, the cells were further cultured in the medium to which L-pyrrolidonecarboxylic acid was added so as to achieve a predetermined concentration (See Table 3 given later) for 24 hours, and then the RNA was extracted. For reverse transcription of the RNA, a kit for reverse transcription (manufactured by GIBCO) was used to prepare the cDNA. The cDNA was then subjected to PCR (RT-PCR). Forty cycles of the PCR were carried out under the conditions of denaturing at 95° C. for 30 seconds, annealing at 59° C. for 60 seconds, and extension at 73° C. for 90 seconds.
(§2) As has been described above, using RT-PCR, the expressed amounts of the messenger RNA's of cNOS and iNOS were determined. In this experiment, cNOS was detected, but iNOS was not detected. […] In the table, L-PCA means L-pyrrolidonecarboxylic acid.

iNOS = experiment: RT-PCR of iNOS messenger RNA in angioendothelial cells; conditions: L-PCA 1.0-10.0 mM, 24 hours, RT-PCR 40 cycles
Procedure: as §1, §2

O=C1CC[C@@H](C(=O)O)N1 [Example 1, L-2-pyrrolidone-5-carboxylic acid]
Formed amount of nitric oxide (Angioendothelial cells): 1.4 nmol/10^3 cells

N=C(N)NCCC[C@H](N)C(=O)O [Comparative Example 2, L-arginine, reference compound]
Formed amount of nitric oxide (Angioendothelial cells): 1.9 nmol/10^3 cells

O=C1CC[C@@H](C(=O)O)N1 [L-PCA, L-2-pyrrolidone-5-carboxylic acid]
amount of cNOS depending on the amount of pyrrolidonecarboxylic acid added (in words) (cNOS; 1.0-10.0 mM, RT-PCR): tended to increase | Expressed amount of cNOS (Relative ratio) (cNOS; L-PCA added 1.0 mM): 1.00 | Expressed amount of cNOS (Relative ratio) (cNOS; L-PCA added 2.5 mM): 1.25 | Expressed amount of cNOS (Relative ratio) (cNOS; L-PCA added 5.0 mM): 1.40 | Expressed amount of cNOS (Relative ratio) (cNOS; L-PCA added 10.0 mM): 1.75 | promoting effect on the production of nitric oxide (in words) (Angioendothelial cells; angioendothelial cells, 24 hours, comparison at 10 mM of added compound): exhibited a promoting effect on the production of nitric oxide | expressed amount of messenger RNA of iNOS (detection) (iNOS): not detected
